Results reported in patent US11033604B2, “Reagents and methods for treating bacterial infection” (priority 2018, dated 2021).
Non-standard residues stand in square brackets, D forms with d. No end group written: not given here.

Assays:
[1] = system: Streptococcus mutans (SM); assay: Crystal violet biofilm assay; type: cell-based
Source text: (§1) Furthermore, these same inhibitors are active against EC, SE, and SM.

Escherichia coli (EC) = assay: Crystal violet biofilm assay; type: cell-based
Source text: as §1

[2] = system: Staphylococcus epidermidis (SE); assay: Crystal violet biofilm assay; type: cell-based
Source text: as §1

[3] = system: Pseudomonas aeruginosa (PA); assay: Crystal violet biofilm assay; type: cell-based
Source text: as §1

SA = assay: Crystal violet biofilm assay; type: cell-based, Staphylococcus aureus
Source text: as §1

FapC = target: T1, FapC (Pseudomonas aeruginosa, UniProt Q9I2F0); assay: FapC in vitro ThT aggregation assay; type: biochemical, P. aeruginosa; settings: 0.2 mg/mL FapC, 37° C.
T1 sequence (Q9I2F0 25-340): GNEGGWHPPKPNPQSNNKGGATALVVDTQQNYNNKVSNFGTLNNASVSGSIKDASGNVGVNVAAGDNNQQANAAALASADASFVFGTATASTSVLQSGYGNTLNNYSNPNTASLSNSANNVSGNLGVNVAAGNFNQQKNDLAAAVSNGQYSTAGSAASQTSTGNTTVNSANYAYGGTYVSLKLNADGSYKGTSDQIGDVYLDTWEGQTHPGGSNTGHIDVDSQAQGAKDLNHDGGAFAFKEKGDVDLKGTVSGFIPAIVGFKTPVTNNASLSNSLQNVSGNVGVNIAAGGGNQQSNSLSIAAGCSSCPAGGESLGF
Protocol: FIG. 15. Action of synthetic α-sheet peptides in the P. aeruginosa system. […] Error bars indicate standard deviation of the mean of at least three replicates. Significance values are p<0.05: *, p<0.01: **, p<0.001: ***.
Samples are aliquoted into 96 well plates and incubated in a plate reader at 37° C. with shaking every 5 min. As previously, the fluorescence of ThT monitors protein fibril formation in real time. Synthetic α-sheet peptides may also be added to the reaction to determine whether they inhibit FapC fibril formation, as in the case of AP90 (FIG. 15A).

E. coli UTI89 = assay: Bacterial growth and biofilm versus planktonic proportion; type: cell-based; settings: UTI89 biofilm cultures
Source text: FIG. 12. […] Error bars indicate standard deviation of the mean of at least three replicates. Significance values are p<0.05: *, p<0.01: **, p<0.001: ***.
(§2) UTI89 biofilms were also cultivated in the presence of an unstructured peptide, P1, which retains a mixture of L- and D-amino acids but lacks the α-sheet secondary structure of AP193.

[4] = system: E. coli UTI89 WT biofilms; assay: Antibiotic susceptibility test with gentamicin (live/dead ratio and CFU counts); type: cell-based; settings: 150 μg/mL gentamicin, 6 h, vs peptide-free controls
Protocol: FIG. 13. Synthetic α-sheet peptides increase antibiotic susceptibility of uropathogenic E. coli biofilms, as measured by A) live/dead fluorescence ratio and (B) CFU counts. Error bars indicate standard deviation of the mean of at least three replicates.
To test this hypothesis, biofilms of E. coli UTI89 WT were grown in YESCA broth+4% DMSO in 48 well plates at 26° C. Media was removed 6 h prior to the end of the 48 h incubation period and replaced either with fresh media alone or fresh media containing 150 μg/mL gentamicin (Gm), an aminoglycoside antibiotic. After the 6 h incubation, biofilms were harvested by aspirating the planktonic cells, rinsing the biofilm once with PBS, and then resuspending the biofilm in PBS. Biofilm suspensions were homogenized with a probe sonicator and subjected to one of two processing protocols. In the first assay, the bacterial density of each biofilm suspension was normalized by absorbance at 670 nm and then bacteria were stained with Live/Dead (Syto9/propidum iodide) to obtain a fluorescent readout of viability. In the second assay, biofilm suspensions were serially diluted in sterile PBS and then plated on agar plates to obtain colony-forming unit (CFU) counts.

csgA expression = assay: RT-qPCR of csgA expression in biofilms; type: cell-based, E. coli; settings: biofilms grown with peptide vs peptide-free controls
Source text: as §2

[5] = system: bacterial biofilm on glass disks; assay: Biofilm formation on α-sheet peptide coated glass disk; type: cell-based; settings: polydopamine-grafted peptide, FIG. 17 (dimeric AP193)
Source text: FIG. 17. Bacterial adherence and growth of biofilm on glass disks and decreased adhesion of bacteria (GFP signal) and biofilm and amyloid formation (Brightfield image) when glass is coated with α-sheet peptides, shown for dimeric AP193. This is a model for biofilm formation on implanted devices such as prosthetic joints.
We have conjugated α-sheet peptides to other functional molecules to enhance their efficacy at the site of biofilm infection, i.e., the surface of biomedical implants. To this end, we used a polydopamine (PDA) coating approach to facilitate attachment of α-sheet peptides to biomedical implant materials. […]
For α-sheet peptide grafting, 0.5 mg/mL peptide (e.g. AP90, AP193, or P1 as a control) was dissolved in 10 mM Tris pH 8.0 and then applied to PDA-coated substrates for overnight reaction (18 hours). […] First, the concentration of peptide remaining in solution after conjugation was measured by NanoOrange™ assay to determine coupling efficiency and surface density. Second, accessibility of α-sheet peptides on the surface was determined by immunofluorescence; PGPMs were blocked with 5% BSA solution for 12 h, incubated with AlexaFluor®568-conjugated Pac53 antibody (which recognizes α-sheet peptides), and then washed and imaged on a fluorescent microscope to ensure attachment to the disks. […]

Substance: RGEmNlSwMNEYSGWtMnLkMGR (RGEMNLSWMNEYSGWTMNLKMGR; not fully specified (residues 4, 6, 8, 16, 18, 20); printed as RGEmNlSwMNEYSGWtMnLkMGR) [AP90]
- Activity against biofilm-forming bacteria (crystal violet) [1]: active
- Activity against biofilm-forming bacteria (crystal violet) (Escherichia coli (EC)): active
- Activity against biofilm-forming bacteria (crystal violet) [2]: active
- Biofilm inhibition (crystal violet, FIG. 10) [3]: inhibition
- Biofilm inhibition (crystal violet, FIG. 10) (SA): inhibition
- FapC fibril formation (ThT) (FapC): inhibits fibril formation

Substance: RGEmNyFwMNEYYGWtMnCkMGR (RGE[dM]N[dY]F[dW]MNEYYGW[dT]M[dN]C[dK]MGR) [AP193, hydrophobic AP90 derivative, variant to support different chemical coupling reactions]
- Bacterial killing / growth inhibition (E. coli UTI89): does not kill bacteria or inhibit their growth
- Efficacy of gentamicin (Gm) against biofilms (live/dead ratio, CFU counts) [4]: improved the efficacy of Gm
- csgA expression (RT-qPCR) (csgA expression): did not reveal any significant changes in csgA expression
- Amount of bacterial biofilm on peptide-coated glass disk [5]: dramatic drop in the amount of bacterial biofilm
